The values below come from ChEMBL document CHEMBL1201862, “PubChem BioAssay data set” (2004).

Active and inactive are the calls of the source.

Experiment [1] has as its system Vero. Nature of the experiment: host cell viability loss, Vero E6 – synthesized analogs, cytotoxicity control for West Nile virus antiviral project, SAR follow-up (AID 2244). The following applies: Chlorocebus sabaeus. The class given is functional.
In experiment [2] the target is T1, Ubiquitin-conjugating enzyme E2 N (Homo sapiens, UniProt P61088).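 Further: Dose-response confirmation in a TR-FRET assay detecting UBC13-driven polyubiquitin chain formation, inhibition measured.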
T1 sequence (P61088 whole entry): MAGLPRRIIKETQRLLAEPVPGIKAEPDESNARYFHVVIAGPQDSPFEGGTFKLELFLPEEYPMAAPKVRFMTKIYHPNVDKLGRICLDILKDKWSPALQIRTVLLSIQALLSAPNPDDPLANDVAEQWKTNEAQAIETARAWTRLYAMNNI
The class given is functional.

Experiment [3] concerns Vero. Nature of the experiment: Vero 76 cell viability after compound exposure – Vero 76 cells, synthesized analogs, cytotoxicity control for West Nile virus antiviral project, SAR follow-up (AID 2414). The experiment is classed as functional. To be noted: Chlorocebus sabaeus.
Experiment [4] deals with Vero. As to the kind of experiment: antiviral protection of cells from WNV – synthesized analogs, SAR follow-up (AID 2238). The experiment is classed as functional, cell-based. The following applies: Chlorocebus sabaeus.
Experiment [5] concerns Vero. Nature of the experiment: Vero cell viability after compound exposure – synthesized analogs, set II, cytotoxicity control for West Nile virus antiviral project, SAR follow-up (AID 2402). The class given is functional. The following applies: Chlorocebus sabaeus.
Experiment [6] can be described thus: A Cell Based Assay for the Identification of Probe candidate Compounds with Anti- Venezuelan Equine Encephalitis virus. [Related pubchem assays: 2409, 2419, 1621, 2238, 2405, 2024, 2065, 2402, 2414, 1635, 1650, 2244 ]. The class given is functional.
In another experiment the target is T2, Coagulation factor XII (Homo sapiens, UniProt P00748).
T2 sequence (P00748 whole entry): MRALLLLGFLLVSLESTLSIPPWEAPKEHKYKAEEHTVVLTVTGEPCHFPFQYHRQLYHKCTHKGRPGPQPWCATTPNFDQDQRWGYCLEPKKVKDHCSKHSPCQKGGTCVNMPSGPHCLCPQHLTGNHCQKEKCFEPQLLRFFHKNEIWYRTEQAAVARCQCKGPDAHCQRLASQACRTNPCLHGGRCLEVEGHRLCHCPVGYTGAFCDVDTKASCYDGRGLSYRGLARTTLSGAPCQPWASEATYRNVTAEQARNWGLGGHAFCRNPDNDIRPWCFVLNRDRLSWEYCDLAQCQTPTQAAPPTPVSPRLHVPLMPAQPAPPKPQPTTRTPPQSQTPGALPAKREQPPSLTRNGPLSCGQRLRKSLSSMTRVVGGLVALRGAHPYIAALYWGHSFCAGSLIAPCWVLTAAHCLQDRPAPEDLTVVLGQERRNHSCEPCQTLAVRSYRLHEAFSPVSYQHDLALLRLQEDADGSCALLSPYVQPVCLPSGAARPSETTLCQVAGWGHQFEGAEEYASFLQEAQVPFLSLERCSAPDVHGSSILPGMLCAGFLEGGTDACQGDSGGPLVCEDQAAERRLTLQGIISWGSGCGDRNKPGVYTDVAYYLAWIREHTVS
Nature of the experiment: Factor XIIa Dose Response Confirmation from Single Well HTS. [Related pubchem assays (depositor defined):AID701]. The class given is functional.

The target in experiment [7] is DNA dC->dU-editing enzyme APOBEC-3A (Homo sapiens, UniProt P31941). Nature of the experiment: Dose Response confirmation of small molecule APOBEC3A DNA Deaminase Inhibitors via a fluorescence-based single-stranded DNA deaminase assay. [Related pubchem assays (depositor defined):AID493011, AID493024]. The experiment is classed as functional.
Experiment [8] has as its target DNA dC->dU-editing enzyme APOBEC-3G (Homo sapiens, UniProt Q9HC16). The experiment is classed as functional.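 Further: Dose-response counterscreen measuring inhibition of APOBEC3G DNA deaminase activity, run while confirming APOBEC3A inhibitors.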
The next experiment deals with T-cell. Nature of the experiment: loss of vesicle association with mouse CD8+ T cells – mouse 2C CD8+ T cells, flow cytometry, dose response (AID 485284). The class given is functional.
In experiment [9] the target is Dual specificity protein phosphatase 3 (Homo sapiens, UniProt P51452). As to the kind of experiment: SAR VHR1 Fluorescent Assay for In Vitro dose response studies Set 2. [Related pubchem assays (depositor defined):AID1654, AID1661, AID1878]. The experiment is classed as functional.
Experiment [10] concerns the target T3, Tyrosine-protein phosphatase non-receptor type 7 (Homo sapiens, UniProt P35236).
T3 sequence (P35236 whole entry): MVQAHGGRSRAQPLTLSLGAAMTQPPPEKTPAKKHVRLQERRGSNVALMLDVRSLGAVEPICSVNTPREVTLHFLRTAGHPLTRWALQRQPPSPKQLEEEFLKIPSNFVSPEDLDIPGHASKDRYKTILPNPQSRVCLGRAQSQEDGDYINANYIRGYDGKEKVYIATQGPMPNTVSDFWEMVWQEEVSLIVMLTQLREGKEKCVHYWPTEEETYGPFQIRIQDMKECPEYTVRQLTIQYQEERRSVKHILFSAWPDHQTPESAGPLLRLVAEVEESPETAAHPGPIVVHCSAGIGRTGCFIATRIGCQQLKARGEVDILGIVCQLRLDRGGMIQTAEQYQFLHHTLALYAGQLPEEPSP
Nature of the experiment: SAR analysis of chemical inhibitors of HePTP using a Fluorescent assay - Set 2. [Related pubchem assays (depositor defined):AID1059, AID1077, AID1661, AID2085, AID521]. The experiment is classed as functional.

Chain of DNA dC->dU-editing enzyme APOBEC-3G (Q9HC16 whole entry): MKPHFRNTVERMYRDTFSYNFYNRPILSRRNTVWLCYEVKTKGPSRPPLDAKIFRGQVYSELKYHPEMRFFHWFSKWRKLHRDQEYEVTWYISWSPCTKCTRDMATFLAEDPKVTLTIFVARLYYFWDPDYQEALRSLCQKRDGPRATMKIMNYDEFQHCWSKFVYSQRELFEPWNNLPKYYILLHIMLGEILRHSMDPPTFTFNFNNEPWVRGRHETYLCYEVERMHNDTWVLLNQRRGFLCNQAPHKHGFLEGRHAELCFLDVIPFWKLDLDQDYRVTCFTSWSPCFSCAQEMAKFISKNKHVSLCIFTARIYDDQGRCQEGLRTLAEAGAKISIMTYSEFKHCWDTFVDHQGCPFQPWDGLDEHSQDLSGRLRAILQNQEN
Chain of Dual specificity protein phosphatase 3 (P51452 whole entry): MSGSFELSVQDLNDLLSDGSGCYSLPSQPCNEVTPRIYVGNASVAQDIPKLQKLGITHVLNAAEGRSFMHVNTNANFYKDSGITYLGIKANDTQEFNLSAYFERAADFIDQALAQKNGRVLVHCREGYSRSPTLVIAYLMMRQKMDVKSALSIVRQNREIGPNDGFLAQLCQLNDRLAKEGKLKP
Chain of DNA dC->dU-editing enzyme APOBEC-3A (P31941 whole entry): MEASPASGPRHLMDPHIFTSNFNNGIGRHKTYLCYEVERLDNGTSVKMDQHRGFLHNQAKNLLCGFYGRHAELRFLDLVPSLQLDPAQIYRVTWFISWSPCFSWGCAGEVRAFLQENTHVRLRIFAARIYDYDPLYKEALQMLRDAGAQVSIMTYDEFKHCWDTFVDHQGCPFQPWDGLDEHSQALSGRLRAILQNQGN

For the compound `CC1CC(C)CN(CCCNC(=O)c2cc3c(s2)-c2ccccc2OC3)C1` (configuration not stated), the CC50 (commonly the concentration giving 50% cytotoxicity) is 12.4 µM (active) in the experiment on Vero [1], 29.4 µM (active) in the experiment with Vero [3] and 11.2 µM (active) in the experiment on Vero [5]. Further, the IC50 (usually the midpoint of a concentration-inhibition curve) in experiment [2] was > 20 µM (inactive); in the experiment with Vero [4], > 40 µM (active); in experiment [6], 15.5 µM (active).
Turning to `CC1(C)c2ssc(=S)c2-c2ccccc2N1C(=O)c1ccco1`, at Coagulation factor XII, the IC50 was > 50 µM (inactive).
`CC(Oc1ccc(Br)cc1)C(=O)Nc1cc(Cl)ccc1N1CCN(C)CC1` (configuration not stated): the IC50 in experiment [7] is 3.15 µM (active); in experiment [8], 4.26 µM (active).
For the compound `CCC(C(=O)Nc1ccccc1)c1ccccc1` (configuration not stated), the EC50 (usually the concentration giving half of the maximal effect) in the experiment with T-cell is 0.0882 µM (active).
For the compound `COc1cc(C(=S)NCc2ccc(F)cc2)ccc1O`, the IC50 in experiment [9] was 99.5 µM (inactive); in experiment [10] it was > 100 µM (inactive).
